Measurements reported in patent US11253589B2, “Modulation of the immune response” (priority 2007, dated 2022).

Key:
[1] = in vivo; cited from earlier work
[2] = test system: MOG35-55-specific Treg and Teff; experiment: MOG35-55-specific Treg and Teff by MHC class II tetramer FACS; assay type: in vivo, mouse; conditions: Foxp3gfp mice, ITE 200 mg/mice intraperitoneal daily
Protocol: To investigate the effect of AHR activation by ITE on the frequency of MOG35-55 specific Treg and effector T cells (Teff), Foxp3^gpf knock in mice were immunized with MOG35-55/CFA, treated daily with intreaperitoneal ITE ([…]) and MOG35-55-specific Treg (CD4^+ FoxP3:GFP^+) and Teff (CD4^+ FoxP3:GFP^−) were analyzed by FACS using recombinant MHC class II tetramers containing […] or the control peptide TMEV70-86.

zFoxp3 = zFoxp3 expression in zebrafish embryos by real time PCR; assay type: in vivo; conditions: 3-day post-fertilization zebrafish embryos, TCDD in water, 72 hours
Protocol: The expression of zFoxp3 was then analyzed by real-time PCR on FACS-sorted lymphocytes, myelomonocytes and erythrocytes (Traver et al., Nat Immunol 4, 1238-46 (2003)). RNA was extracted from cells using RNAeasy columns (Qiagen, Valencia, Calif., USA), complementary DNA was prepared as recommended (Bio-Rad Laboratories, Hercules, Calif., USA) and used as template for real time PCR. The expression of Foxp3 was quantified with specific primers and probes (Applied Biosystems, Foster City, Calif., USA) on the GeneAmp 5500 Sequence Detection System (Applied Biosystems). Expression was normalized to the expression of the housekeeping gene, GAPDH.
TCDD was also used to characterize the functional relationship between AHR and Foxp3.

[3] = test system: CD4+Foxp3:GFP- 2D2 T cells; experiment: In vivo conversion of transferred CD4+Foxp3:GFP- 2D2 T cells into Treg; conditions: recipients given 1 μg/mouse TCDD, immunized 2 days later with MOG35-55
Protocol: To investigate if new Treg could also be generated in vivo following TCDD administration, we transferred CD4^+Foxp3:GFP^− 2D2 T cells from CD90.2 donors into wild type CD90.1 recipients. CD4^+Foxp3:GFP^− 2D2 T cells express a MOG35-55-specific T cell receptor. The recipients were administered 1 μg/mouse TCDD and were immunized 2 days later with MOG35-55. CD4^+Foxp3:GFP^+ CD90.2 T cells (donor cells that underwent conversion into Treg upon treatment with TCDD) were then quantified by FACS.

CD4+ Foxp3+ Treg = experiment: CD4+Foxp3+ Treg levels in AHR-d mice; assay type: in vivo; conditions: TCDD 1 μg/mouse
From the text: To confirm that the effects on EAE were mediated by the activation of AHR, we used C57BL/6 mice carrying the d allele of the ahr gene (AHR-d mice). This allele codes for a mutant AHR with a 10 fold reduction in its affinity for TCDD and other ligands (Okey et al., Mol Pharmacol. 35, 823-30 (1989)) due to mutations in its ligand binding sites.

mutant AHR = conditions: Okey et al. 1989; cited from earlier work
AHR = experiment: ChIP analysis of the interaction of AHR with CABS and NCABS in foxp3; assay type: cell-based, mouse; conditions: CD4+ T cells treated with TCDD for 90'
Protocol: Briefly, cells were treated for 90′ with TCDD, fixed with 1% formaldehyde for 15 minutes and quenched with 0.125 M glycine. Chromatin was isolated and sheared to an average length of 300-500 bp by sonication. Genomic DNA (input) was prepared by treating aliquots of chromatin with RNase, proteinase K and heat for de-crosslinking, followed by ethanol precipitation. AHR-bound DNA sequences were immuno-precipitated with an AHR-specific antibody (Biomol SA-210). Crosslinks were reversed by incubation overnight at 65° C., and ChIP DNA was purified by phenol-chloroform extraction and ethanol precipitation. Quantitative PCR reactions were then performed using the following primer pairs:
Experimental Ct values were converted to copy numbers detected by comparison with a DNA standard curve run on the same PCR plates. Copy number values were then normalized for primer efficiency by dividing by the values obtained using Input DNA and the same primer pairs. Error bars represent standard deviations calculated from the triplicate determinations.

CD4+Foxp3:GFP- T cells = experiment: In vitro conversion of CD4+Foxp3:GFP- T cells into Treg; assay type: cell-based, mouse; conditions: antibodies to CD3 and CD28 in the presence of TCDD, 5 days
Protocol: CD4+ T cells were purified from Foxp3gfp knock in mice using anti-CD4 beads (Miltenyi, Auburn, Calif., USA) and sorted (FACSAria™ cell sorter, BD Biosciences) into naive CD4^+ Foxp3:GFP^− or CD4^+ Foxp3:GFP T cells. CD4^+ Foxp3:GFP^− T cells were stimulated with plate bound 1 μg/ml of anti-CD3 (145-2C11, eBioscience) and 2 μg/ml of anti-CD28 (37.51, eBioscience) for 5 days, supplemented with recombinant IL-2 (50 U/ml) at day 2 and 4, and analyzed by FACS at day 5 for their differentiation into […]. TGFβ1 (2.5 ng/ml) was used as a positive control.
To establish if TCDD triggered the conversion of CD4^+Foxp3^− T cells into new Foxp3^+ Treg cells, FACS sorted CD4^+Foxp3:GFP− T cells were activated in vitro with antibodies to CD3 and CD28 in the presence of TCDD, and the generation of CD4^+Foxp3:GFP^+ Treg was followed by FACS. TGFb1 was used as a positive control.

[4] = test system: CD4+ CD62L+CD45RO- T cells; experiment: In vitro differentiation of human naive CD4+ T cells, suppression and real time PCR; assay type: cell-based
Protocol: To investigate the potential of AHR targeting for the induction of human Treg we activated purified naïve CD4^+ CD62L^+CD45RO^− T cells for healthy donors for 5 days with antibodies to CD3 and CD28 in the presence of TCDD 100 nM or TGFb1 2.5 ng/ml or both.
To study the functionality of the putative human Treg induced in the presence of TCDD we studied their suppressive activity of CD4^+ CD25^High and CD4^+CD25^Low T cells following 5 days of activation in the of TCDD or TGFb1 2.5 ng/ml or both.
To investigate the mechanism mediating the suppressive activity of the TCDD-induced Treg, we analyzed them by real time PCR for the expression of several genes that have been previously linked to the suppressive function of Treg. […] Accordingly, IL-10-specific blocking antibodies could interfere with the suppressive activity of Treg induced with TCDD, but not the of those induced with TGFb1 and TCDD (FIG. 42). Thus, TCDD-induced CD4^+CD25^High T cells are FoxP3^− regulatory cells whose suppressive activity is mediated, at least partially, via IL-10, resembling the phenotype of type 1 Treg (Roncarolo et al., Immunol Rev. 212, 28 (2006); Roncarolo and Gregori, Eur J Immunol. 38, 925 (2008)).

Row | SMILES | toxic effects [1] | frequency of MOG35-55-specific Teff [2] | frequency of MOG35-55-specific Treg [2] | zFoxp3 expression (zFoxp3) | conversion of CD4+Foxp3:GFP- CD90.2 donor T cells into Treg cells [3] | levels of CD4+ Foxp3+ Treg (CD4+ Foxp3+ Treg) | reduction in affinity of mutant AHR (d allele) for TCDD (mutant AHR) [fold] | AHR binding to NCABS-1, NCABS-3 in foxp3 (ChIP) (AHR) | AHR binding to the CABS and NCABS-2 in foxp3 (ChIP) (AHR) | conversion of cells in culture into CD4+Foxp3:GFP+ Treg (CD4+Foxp3:GFP- T cells) | induction of suppressive (regulatory) T cells ([4]; 5 days activation with antibodies to CD3 and CD28, TGFb1 2.5 ng/ml or TCDD alone) | IL-10 expression (real time PCR) ([4]; TCDD 100 nM) | FoxP3 expression (real time PCR) ([4]; TCDD 100 nM and TGFb1 2.5 ng/ml) | FoxP3 expression (real time PCR) ([4]; TCDD 100 nM in the absence of TGFb1) | induction of CD4+ FoxP3+ T cells ([4]; TCDD 100 nM, antibodies to CD3 and CD28, 5 days) | suppressive activity of T cells generated with TCDD ([4]; TCDD together with TGFb1 2.5 ng/ml)
1 | COC(=O)c1csc(C(=O)c2c[nH]c3ccccc23)n1 [ITE, 2-(1′H-indole-3′-carbonyl)-thiazole-4-carboxylic acid methyl ester] | do not display the toxic effects | decrease in the frequency | concomitant increase in the frequency | – | – | – | – | – | – | – | – | – | – | – | – | –
2 | Clc1cc2c(cc1Cl)Oc1cc(Cl)c(Cl)cc1O2 [TCDD, 2,3,7,8 tetrachlorodibenzo-p-dioxin] | – | – | – | dose-dependent increase in zFoxp3 expression | significant | did not increase the levels | 10 | No significant increase in AHR binding | increased AHR binding to the CABS and NCABS-2 | approximately 13% | generation of both CD4^+ CD25^High and CD4^+ CD25^Low functional human regulatory T cells | increased levels of IL-10 | significantly up-regulated | marginal induction of FoxP3 expression | in some (FIG. 36) but not all human samples | amplified in the presence of TGFb1
